We go through 1 compound from article PMC4302236, “Functional profile of a novel modulator of serotonin, dopamine, and glutamate neurotransmission” (Psychopharmacology, 2014).

In one assay the target is T1, Histamine H1 receptor (Bos taurus, UniProt P30546).
T1 construct: tissue NovaScreen/Caliper/Perkin-Elmer; host or cells: bovine cerebellum
Description: Histamine H1 receptor binding in bovine cerebellum (3H-pyrilamine). The method, then: Binding activity at a variety of receptor targets, including recombinant human serotonin receptors and rat dopamine D2 and human recombinant dopamine D4 receptors, was measured in vitro using standard radioligand displacement methods (NovaScreen/Caliper/Perkin-Elmer, Hanover, MD), to determine affinity. […] D2 receptor binding was measured at rat recombinant receptors expressed in Chinese hamster ovary (CHO) cells and using ^3H-methylspiperone as a radioligand and in rat striatum using ^3H-sulpiride as a radioligand. […] D4 receptor binding was measured at human recombinant receptor s expressed in CHO cells and using ^3 H-methylspiperone as a radioligand. D1 receptor binding at human recombinant receptor was measured in CHO cells using ^3H-SCH23390 as a radioligand. 5-HT2C receptor binding was measured in pig choroid plexus using ^3 H-methylsergide as a radioligand. Binding to alpha adrenergic receptors in the rat frontal cortex (alpha1A) or rat liver (alpha1B) was measured using ^3H-prazosin as a radioligand. Histamine H1 receptor binding was measured in bovine cere- bellum using ^3H-pyrilamine as a radioligand. […] The affinity constant (Ki) for each receptor subtype or inhibitory concentration 50 (IC50) for inhibition in functional assays was calculated.

The target of assay [1] is T2, human recombinant D2-short receptor (Homo sapiens, UniProt P14416).
T2 construct: expressed in transfected cells; host or cells: CHO
Put plainly: Blockade of dopamine-induced inhibition of forskolin-stimulated cAMP accumulation in CHO cells. It counts as cell-based. As to conditions: forskolin 10 μM, read-out: IC50, blocking dopamine inhibition of forskolin-stimulated cAMP accumulation. In general terms: Changes in cAMP serve as a functional read-out for many G protein-coupled receptors.

Some results are limits rather than exact numbers.

T1 sequence (P30546 whole entry): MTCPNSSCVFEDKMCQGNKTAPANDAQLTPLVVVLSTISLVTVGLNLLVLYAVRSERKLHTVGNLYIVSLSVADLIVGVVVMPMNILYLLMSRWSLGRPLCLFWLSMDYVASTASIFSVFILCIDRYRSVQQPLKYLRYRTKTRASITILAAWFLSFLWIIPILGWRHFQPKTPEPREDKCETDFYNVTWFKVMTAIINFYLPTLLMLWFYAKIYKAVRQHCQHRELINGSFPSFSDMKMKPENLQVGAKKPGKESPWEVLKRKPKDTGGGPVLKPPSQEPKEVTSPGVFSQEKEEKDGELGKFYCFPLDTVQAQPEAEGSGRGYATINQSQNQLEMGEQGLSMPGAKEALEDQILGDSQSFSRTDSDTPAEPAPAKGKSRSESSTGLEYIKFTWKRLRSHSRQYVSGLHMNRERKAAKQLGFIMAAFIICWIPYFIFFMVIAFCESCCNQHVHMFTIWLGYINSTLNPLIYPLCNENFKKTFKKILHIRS
T2 sequence (P14416 1-414 isoform P14416-2): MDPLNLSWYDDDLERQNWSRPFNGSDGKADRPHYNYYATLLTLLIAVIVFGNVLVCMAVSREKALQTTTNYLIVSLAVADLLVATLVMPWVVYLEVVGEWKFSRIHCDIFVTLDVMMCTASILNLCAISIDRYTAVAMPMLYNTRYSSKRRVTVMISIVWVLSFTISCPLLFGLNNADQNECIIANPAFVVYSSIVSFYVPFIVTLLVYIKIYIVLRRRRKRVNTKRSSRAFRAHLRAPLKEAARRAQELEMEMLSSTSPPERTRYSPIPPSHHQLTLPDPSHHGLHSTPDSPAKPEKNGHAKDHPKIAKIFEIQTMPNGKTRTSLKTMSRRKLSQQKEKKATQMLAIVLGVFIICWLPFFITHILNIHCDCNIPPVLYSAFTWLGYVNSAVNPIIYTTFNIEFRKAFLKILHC

In general, Ki refers to the dissociation constant of the complex between target and ligand, obtained from inhibition or displacement. Low readings indicate higher affinity, high ones lower affinity. What is called IC50 is the concentration that gives 50% inhibition. As to `CN1CCN2c3c(cccc31)[C@@H]1CN(CCCC(=O)c3ccc(F)cc3)CC[C@@H]12` [ITI-007, 1-(4-fluoro-phenyl)-4-((6bR,10aS)-3-methyl-2,3,6b,9,10,10a-hexahydro-1H,7H-pyrido[3′,4′:4,5]pyrrolo[1,2,3-de]quinoxalin-8-yl)-butan-1-one], the “Binding to histamine H1 receptors” value at Histamine H1 receptor is recorded as “no significant binding”. For the same compound, at Histamine H1 receptor (radioligand displacement, unit inferred), the inhibition constant Ki was > 1000 nM. In assay [1], the IC50 amounted to 338 nM.
